Here are results for ten molecules from patent US6946547B2, “Ecstasy-class analogs and use of same in detection of ecstasy-class compounds” (Microgenics Corporation, priority 2000, dated 2005).

The test system of assay [1] is Antibody 1A9. The assay can be described thus: CEDIA ecstasy-class assay on a Hitachi clinical chemistry analyzer. The assay is classed as binding, mouse. Conditions: for detection in the CEDIA ecstasy-class MDMA assay: in words. The protocol:
Antibodies obtained using any of the aforementioned techniques are screened or purified not only for their ability to react with an ecstasy-class compound, but also for a low cross-reactivity with potential interfering substances. “Cross reactivity” is determined in a quantitative immunoassay by establishing a standard curve using known dilutions of the target analyte, e.g., MDMA. […] The cross-reactivity is the apparent concentration divided by the actual concentration multiplied by 100. […] Alternatively, the cross-reactivity can be determined in the same type of immunoassay in which the antibody will ultimately be used.
• a. Preparation of Reagents:
Enzyme Donor (ED) Reagent was prepared as a liquid reagent with the components below:
Assay Protocol: The assay was performed on a Hitachi clinical chemistry analyzer as follows: Sample was pipetted into a reaction cuvette. EA reagent, containing antibody, was added. The mixture was incubated at 37° C. for approximately 5 minutes. ED reagent containing […] was subsequently added, and the incubation continued for 4 minutes at 37° C. The rate of substrate hydrolysis was measured photometrically at 570 nm (with subtraction of background at 660 nm) from four to five minutes after ED addition.

Assay [2] in a line: Standard CEDIA DAU Amphetamines assay, Hitachi 911. Conditions: methamphetamine = 100.
Assay [3] relates to 1A9 anti-ecstasy antibody. The assay can be described thus: Enhanced CEDIA DAU Amphetamines assay (1A9 antibody and ED28-(MB-MDA)2 added). To be noted: methamphetamine = 100.
The mark [4] stands for this setting: Antibody 1A9, Experiment 1, concentration 300 ng/mL.
Where [5] appears, read: Antibody 1A9, Experiment 1, concentration 1000 ng/mL.
Where [6] appears, read: Antibody 1A9, Experiment 1, concentration 5000 ng/mL.
Where [7] appears, read: antibody 1A9, summary of detected ecstasy-class compounds.
The mark [8] stands for this setting: Antibody 1A9, Experiment 2, concentration 600,000 ng/mL.
Setting [9] is: Antibody 1A9, Experiment 2, concentration 1,000,000 ng/mL.

Marks after values point to notes of the source that are not given here.

Take `CCC(Cc1ccc2c(c1)OCO2)NC` (centres unmarked) [MBDB, N-methyl-1-(3,4-methylenedioxyphenyl)-2-butanamine]: the Cross-Reactivity in assay [1] (setting [4]) is reported as 23%; in assay [1] (setting [5]), 29* %; in assay [1] (setting [6]), 18%; in assay [1] (setting [7]) it was 23%. Also, the “Cross-reactivity, Standard CEDIA Amphetamines” value in assay [2] (concentration 300 ng/ml) was determined as 64; in assay [2] (concentration 500 ng/ml), 73. The “Cross-reactivity, Enhanced CEDIA Amphetamines” value in assay [3] (concentration 300 ng/ml) is on record as 80; in assay [3] (concentration 500 ng/ml) it was 97.
Consider `CN[C@@H](C)[C@@H](O)c1ccccc1` [pseudoephedrine], for which the Cross-Reactivity in assay [1] (setting [8]) is 0.0017%.
With `CNC(C)Cc1ccc2c(c1)OCO2` (centres unmarked) [MDMA, 3,4-methylenedioxymethamphetamine], in assay [1] (setting [7]), the Cross-Reactivity stood at 100%. Also, the “Cross-reactivity, Standard CEDIA Amphetamines” value in assay [2] (concentration 300 ng/ml) is 49; in assay [2] (concentration 500 ng/ml) it was 50. Further, the “Cross-reactivity, Enhanced CEDIA Amphetamines” value in assay [3] (concentration 300 ng/ml) came to 129.
As to `CC(N)C(O)c1ccccc1` (centres unmarked) [phenylpropanolamine], the Cross-Reactivity in assay [1] (setting [9]) came to 0.0041%.
Same read-out and setting: then (±)ephedrine, with 0.0047%.
`CCNC(C)Cc1ccc2c(c1)OCO2` (centres unmarked) [MDEA, N-ethyl-3,4-methylenedioxyamphetamine]: the Cross-Reactivity was 155* % in assay [1] (setting [4]), 484% in assay [1] (setting [5]) and 155% in assay [1] (setting [7]). The “Cross-reactivity, Standard CEDIA Amphetamines” value came out at 22 in assay [2] (concentration 300 ng/ml) and 21 in assay [2] (concentration 500 ng/ml). The “Cross-reactivity, Enhanced CEDIA Amphetamines” value in assay [3] (concentration 300 ng/ml) amounted to 153.
Turning to `CCC(N)Cc1ccc2c(c1)OCO2` (centres unmarked) [BDB, 1-(3,4-methylenedioxyphenyl)-2-butanamine], the Cross-Reactivity is 33% in assay [1] (setting [4]), 50* % in assay [1] (setting [5]), 30% in assay [1] (setting [6]) and 33% in assay [1] (setting [7]). Moreover, the “Cross-reactivity, Standard CEDIA Amphetamines” value turned out to be 5 in assay [2] (concentration 300 ng/ml) and 7 in assay [2] (concentration 500 ng/ml). Besides, the results for the “Cross-reactivity, Enhanced CEDIA Amphetamines” value in assay [3] (concentration 300 ng/ml) and in assay [3] (concentration 500 ng/ml) were 105 and 125, respectively.
Regarding `CC(N)Cc1ccc2c(c1)OCO2` (centres unmarked) [MDA, 3,4-methylenedioxyamphetamine], the Cross-Reactivity in assay [1] (setting [4]) was 55%; in assay [1] (setting [5]), 68* %; in assay [1] (setting [6]) it was 63%; in assay [1] (setting [7]), 55%. Also, the “Cross-reactivity, Standard CEDIA Amphetamines” value in assay [2] (concentration 300 ng/ml) is 5; in assay [2] (concentration 500 ng/ml), 4. Besides, the “Cross-reactivity, Enhanced CEDIA Amphetamines” value was 81 in assay [3] (concentration 300 ng/ml) and 91 in assay [3] (concentration 500 ng/ml).
As to `CNC(C)Cc1ccc(O)c(OC)c1` (centres unmarked) [HMMA, 4-hydroxy-3-methoxymethamphetamine], the Cross-Reactivity in assay [1] (setting [4]), in assay [1] (setting [5]) and in assay [1] (setting [6]) was below 0.1% in each case. For the same molecule, the “detection in the CEDIA ecstasy-class MDMA assay” value in assay [1] (antibody 1A9) is “detected neither”.
On to `CN[C@@H](C)Cc1ccccc1` [Methamphetamine], for which, in assay [1] (setting [8]), the Cross-Reactivity amounted to 0.056%. For the same molecule, the “detection in the CEDIA ecstasy-class MDMA assay” value in assay [1] (antibody 1A9) was “detected neither”. Moreover, the “Cross-reactivity, Standard CEDIA Amphetamines” value in assay [2] (concentration 300 ng/ml) and in assay [2] (concentration 500 ng/ml) was 100 throughout. For the same molecule, the “Cross-reactivity, Enhanced CEDIA Amphetamines” value in assay [3] (concentration 300 ng/ml) and in assay [3] (concentration 500 ng/ml) was 100 in each case.
